How the values were obtained:
[1] = test system: acute dextran sodium sulfate (DSS)-induced IBD; test: Acute prophylactic model of DSS-induced IBD in mice; type: in vivo, male C57Bl/6 mice
From the text: Acute and chronic models of dextran sodium sulfate (DSS)-induced IBD in mice were used to explore efficacy of GSNORi against this disease. Acute and chronic DSS-induced IBD are widely used and well characterized models that induce pathological changes in the colon similar to those observed in the human disease. In these models and in human disease, epithelial cells within the crypts of the colon are disrupted, leading to dysfunction of the epithelial barrier and the ensuing tissue inflammation, edema, and ulceration. GSNORi therapy may benefit IBD by restoring s-nitrosoglutathione (GSNO) levels, and thus prevent or reverse the epithelial barrier dysfunction. Experimental IBD was induced by administration of DSS in the drinking water of male C57Bl/6 mice (N=8 to 10 mice per group) for 6 consecutive days. GSNORi was dosed orally at doses of 0.1 to 10 mg/kg/day for 10 days starting two days prior to and continuing two days post DSS exposure. Two days post DSS exposure, the effect of GSNORi was assessed in a blinded fashion via endoscopy and histopathology using a five point scale ranging from a score=0 (normal tissue) through a score=4 (ulcerative tissue damage and marked pathological changes). Levels of circulating cytokines involved in inflammatory pathways were also assessed. The effect of GSNORi was compared to vehicle treated controls. The corticosteroid, prednisolone, was used as the positive control in this study and was administered daily at 3 mg/kg/day via oral dosing. Naïve mice (N=5) were also assessed as a normal tissue control.

[2] = test system: cigarette smoke-induced COPD (subchronic 11 day); test: Subchronic (11 day) cigarette smoke exposure COPD model; type: in vivo, female C57Bl/6 mice
Protocol: The efficacy of GSNOR inhibitors was assessed in a mouse model of chronic obstructive pulmonary disease (COPD) induced by short duration (4 days or 11 days) of exposure to cigarette smoke. Infiltration of inflammatory cells into the bronchoalveolar lavage fluid (BALF) and BALF levels of chemokines involved in inflammation and tissue turnover/repair were measured to assess the influences of GSNOR inhibitors on some of the early events associated with the initiation and progression of COPD.
Efficacy of GSNOR inhibitors against COPD was explored using acute (4 day) and subchronic (11 day) models of cigarette smoke-induced COPD in mice. […] In animal models, changes in lung pathology are only evident after extended (several months) duration of exposure to cigarette smoke, thus making chronic models prohibitive as effective screening tools. More recently, models exploring inflammatory responses after short duration (2 weeks or less) of smoke exposure in mice have been utilized as tools for screening efficacy and mechanisms of action of novel therapeutics against COPD. The key roles of inflammation in the initiation and progression of COPD, make these short duration models relevant for initial tests of efficacy of novel therapeutics.
Subchronic (11 Day) Smoke Exposure Model: Female C57Bl/6 mice (N=10 per group) were exposed to cigarette smoke generated from Marlboro 100 cigarettes without filters. Exposure times were 25 min. on study day 1, 35 min. on study day 2, and 45 min. on study days 3 to 11. GSNOR inhibitors were administered one hour prior to smoke exposure on each day. GSNOR inhibitors were dosed orally at 1 to 10 mg/kg/day for 11 days. The effects of GSNOR inhibitors were assessed by quantitating the number of total cells, and leukocytes differentials in the BALF via light microscopy at 24 h after the last exposure. The effect of GSNOR inhibitors were compared to vehicle treated controls and expressed as percent inhibition of the cigarette smoke induced increases in BALF cell numbers. Roflumilast was used as the positive control for the study and was dosed at 5 mg/kg/day. A group of naïve mice (N=10) was exposed to air and dosed with vehicle as a negative control for the study.

[3] = oral 10 mg/kg/day for 10 consecutive days, prophylactic

SMILES | decrease of percent of mice with severe colon injury scores via endoscopy [1, 3] | decrease of percent of mice with severe colon injury scores via histopathology [1, 3] | dose response of effect ([2]; 1, 5, or 10 mg/kg/day) | effects compared to roflumilast (positive control) ([2]; subchronic 11 day model, roflumilast 5 mg/kg/day) | circulating inflammatory cytokines ([1]; acute DSS model, oral dosing) | effects compared to prednisolone (positive control) ([1]; prednisolone 3 mg/kg/day oral) | inhibition of lymphocytes in BALF ([2]; oral 5 mg/kg/day) [%] | inhibition of macrophages in BALF ([2]; oral 5 mg/kg/day) [%] | inhibition of neutrophils in BALF ([2]; oral 5 mg/kg/day) [%] | inhibition of total cells in BALF ([2]; oral 5 mg/kg/day) [%] | inhibition of smoke-induced increase in eosinophils in BALF ([2]; oral 10 mg/kg/day for 11 days) [%] | inhibition of smoke-induced increase in lymphocytes in BALF ([2]; oral 10 mg/kg/day for 11 days) [%] | inhibition of smoke-induced increase in macrophages in BALF ([2]; oral 10 mg/kg/day for 11 days) [%] | inhibition of smoke-induced increase in neutrophils in BALF ([2]; oral 10 mg/kg/day for 11 days) [%] | inhibition of smoke-induced increase in total cells in BALF ([2]; oral 10 mg/kg/day for 11 days) [%]
O=C(O)c1ccc(-c2ccc3cc(O)ccc3n2)c(Cl)c1 [Example 8, 3-chloro-4-(6-hydroxyquinolin-2-yl)benzoic acid] | 44 % of vehicle control | 26 % of vehicle control | no dose response of effect | comparable to those of roflumilast |  |  |  |  |  |  |  |  |  |  | 
O=C(O)c1ccc(-c2ccc3cc(O)ccc3n2)cc1 [Example 3, 4-(6-hydroxyquinolin-2-yl)benzoic acid] |  |  |  |  | restored circulating inflammatory cytokines towards levels observed in untreated naïve mice | comparable to or greater than those observed for prednisolone | 46 | 23 | 29 | 22 | 70 | 49 | 24 | 41 | 25

— patent US9221810B2, “Substituted bicyclic aromatic compounds as S-nitrosoglutathione reductase inhibitors” (Nivalis Therapeutics, Inc., priority 2010, dated 2015)
